What is called IC50 is the concentration needed to halve the response being measured.

The text below walks through data of patent US9688628B1, “Drug repositioning: urease inhibitory activity of (2S)-1-[(2S)-2-methyl-3-sulfanylpropanoyl]pyrrolidine-2-carboxylic acid (captopril)” (priority 2016, dated 2017).

Assay [1] concerns the target T1, Jack bean urease (Canavalia ensiformis, UniProt P07374).
T1 construct: purchased Sigma-Aldrich (USA) Type IX
Nature of the assay: biochemical.

Assay [2] deals with T1, Jack bean urease. Nature of the assay: mechanistic (kinetic) studies on urease. Format: biochemical. The method, then: For mechanistic studies, urease enzyme solution (1 U/200 μL) was incubated with different concentrations of inhibitors for 15 min at 30° C. The reaction was initiated by adding different concentrations of substrate (0.5-4.0 mM), then phenol and alkali reagent were added and change in absorbance was measured for 50 minutes at 630 nm on microtitre plate reader (Spectra Max M5, Molecular Devices, CA, USA).
The IC50 values were calculated by the EZ-Fit enzyme kinetics program (Perellela Scientific, Inc., Amherst, USA). Lineweaver-Burk plot, secondary plot, and Dixon plot were plotted by using Grafit 7 (Erithacus Software Limited, UK). Grafit 7 program was used to evaluate the correlation coefficients, slopes, and intercepts by linear regression analysis.

T1 sequence (P07374 whole entry, looked up): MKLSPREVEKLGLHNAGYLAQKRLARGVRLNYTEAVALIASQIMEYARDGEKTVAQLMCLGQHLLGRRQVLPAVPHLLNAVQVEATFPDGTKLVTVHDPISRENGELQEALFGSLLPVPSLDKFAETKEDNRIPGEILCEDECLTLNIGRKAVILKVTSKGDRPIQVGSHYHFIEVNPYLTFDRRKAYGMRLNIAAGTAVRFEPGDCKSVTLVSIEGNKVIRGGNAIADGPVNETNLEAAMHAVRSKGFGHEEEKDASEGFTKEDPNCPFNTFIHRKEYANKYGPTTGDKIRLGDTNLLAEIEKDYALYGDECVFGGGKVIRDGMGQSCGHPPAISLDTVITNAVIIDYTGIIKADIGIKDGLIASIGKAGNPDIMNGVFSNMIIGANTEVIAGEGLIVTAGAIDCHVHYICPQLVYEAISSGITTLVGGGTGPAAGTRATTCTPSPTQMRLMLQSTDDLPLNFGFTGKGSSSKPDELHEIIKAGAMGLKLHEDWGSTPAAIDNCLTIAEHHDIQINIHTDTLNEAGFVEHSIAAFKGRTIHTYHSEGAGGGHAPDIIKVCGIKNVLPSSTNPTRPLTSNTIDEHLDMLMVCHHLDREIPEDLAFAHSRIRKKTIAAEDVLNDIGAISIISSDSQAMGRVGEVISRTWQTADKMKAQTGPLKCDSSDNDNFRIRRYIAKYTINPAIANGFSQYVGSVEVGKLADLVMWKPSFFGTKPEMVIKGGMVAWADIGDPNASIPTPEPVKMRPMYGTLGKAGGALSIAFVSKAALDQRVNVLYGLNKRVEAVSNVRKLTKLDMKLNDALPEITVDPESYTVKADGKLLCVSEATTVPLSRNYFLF

Take `C[C@H](CS)C(=O)N1CCC[C@H]1C(=O)O` [Captopril, (2S)-1-[(2S)-2-methyl-3-sulfanylpropanoyl]pyrrolidine-2-carboxylic acid]: the IC50 against Jack bean urease [1] amounted to 27 ± 1.97 µM. The “type of inhibition (Lineweaver-Burk plot)” value at Jack bean urease [2] (FIG. 2A, apparent Km and Vmax changed) is on record as “mixed-type inhibitor”. For the same compound, the “type of inhibition (Dixon plot)” value at Jack bean urease [2] (FIG. 2C, 1/Vmax vs [I]) is given as “non-competitive”.
